Experimental data as given in patent publication US20180235917A1, “COMPOSITIONS, METHODS AND KITS FOR TREATMENT OF DIABETES AND/OR […]” (NuSirt Sciences, Inc., priority 2014, published 2018).
Marks after values point to notes of the source that are not given here.

How the values were obtained:
Sirt1 = biological target: T1, Sirt1 (Mus musculus, UniProt Q923E4); assay: Sirt1 activity (SIRT1 Fluorimetric Drug Discovery Kit) in treated cells; format: cell-based; conditions: leucine 0.5 mM, HMB 5 μM, resveratrol 200 nM, alone or combined; cell type not stated
T1 construct: endogenous in cells; host or cells: differentiated 3T3-L1 adipocytes and C2C12 myotubes (lysates)
T1 sequence (Q923E4 1-737): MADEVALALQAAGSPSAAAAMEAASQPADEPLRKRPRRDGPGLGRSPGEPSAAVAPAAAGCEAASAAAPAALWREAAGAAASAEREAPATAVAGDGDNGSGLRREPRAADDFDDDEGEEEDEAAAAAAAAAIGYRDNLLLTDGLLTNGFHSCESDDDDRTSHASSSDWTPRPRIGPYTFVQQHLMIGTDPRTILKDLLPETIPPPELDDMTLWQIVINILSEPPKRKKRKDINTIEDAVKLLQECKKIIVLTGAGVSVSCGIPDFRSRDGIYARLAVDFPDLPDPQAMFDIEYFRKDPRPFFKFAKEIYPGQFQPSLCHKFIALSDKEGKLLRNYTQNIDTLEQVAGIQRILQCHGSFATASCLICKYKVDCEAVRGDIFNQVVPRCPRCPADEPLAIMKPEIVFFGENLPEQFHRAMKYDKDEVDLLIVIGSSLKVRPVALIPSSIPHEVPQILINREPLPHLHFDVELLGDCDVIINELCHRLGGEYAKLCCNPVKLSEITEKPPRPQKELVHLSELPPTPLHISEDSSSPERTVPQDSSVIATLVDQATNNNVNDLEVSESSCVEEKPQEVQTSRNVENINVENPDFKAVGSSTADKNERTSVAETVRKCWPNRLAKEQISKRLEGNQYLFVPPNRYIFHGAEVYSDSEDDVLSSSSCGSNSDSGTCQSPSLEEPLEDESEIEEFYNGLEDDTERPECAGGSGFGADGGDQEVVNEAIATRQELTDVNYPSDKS
Description: SIRT1 activity was measured by using the SIRT1 Fluorimetric Drug Discovery Kit (BML-AK555, ENZO Life Sciences International, Inc. PA, USA). The assay measures SIRT1 activity by the degree of deacetylation of a standardized substrate containing an acetylated lysine side chain. The substrate utilized is a peptide containing amino acids 379-382 of human p53 (Arg-His-Lys-Lys[Ac]), an established target of SIRT1 activity; SIRT1 activity is directly proportional to the degree of deacetylation of Lys-382. Samples were incubated with peptide substrate (25 μM), and NAD^+ (500 μM) in a phosphate-buffered saline solution at 37° C. on a horizontal shaker for 45 minutes. […] Following 10 minutes incubation at 37° C., fluorescence was read in a plate-reading fluorometer (Synergy HT, BioTek Instruments, Winooski, Vt.) at an excitation wavelength of 360 nm and an emission wavelength of 450 nm. […]
Sirt1 activity was measured by using the Sirt1 Fluorimetric Drug Discovery Kit (BML-AK555, ENZO Life Sciences Inc., Farmingdale, N.Y., USA). […] Sirt1 activity was assessed by the degree of deacetylation of a standardized substrate containing an acetylated lysine side chain. […] Following 10 minutes incubation at 37° C., fluorescence was read in a plate-reading fluorimeter with excitation and emission wavelengths of 360 nm and 450 nm, respectively. […] Sirt1 activity was measured in a modified assay using 5 μl of cell lysate. […]

diet-induced obese mice = assay: Diet-induced obese mice fed resveratrol, HMB, leucine: weight, adiposity, fat oxidation, insulin sensitivity (Example 1); format: in vivo, c57/BL6 mice; conditions: for Weight: 6 weeks on high-fat diet; for Glucose / Insulin: plasma
Description: Six week old male c57/BL6 mice were fed a high-fat diet with fat increased to 45% of energy (Research Diets D12451) for 6 weeks to induce obesity.
The animals were housed in polypropylene cages at a room temperature of 22±2° C. and regime of 12 h light/dark cycle. The animals had free access to water and their experimental food throughout the experiment. At the of the treatment period (6 weeks) all animals were humanely euthanized, and blood and tissues collected for further experiments.
at the end of the obesity induction period (day 0 of treatment group) and at 2 weeks and 6 weeks of treatment, oxygen consumption and substrate utilization was measured via metabolic chambers using the Comprehensive Lab Animal Monitoring Systems (CLAMS, Columbus Instruments, Columbus, Ohio) in subgroups of each treatment group. Each animal was placed in individual cages without bedding that allow automated, non-invasive data collection. Each cage is an indirect open circuit calorimeter that provides measurement of oxygen consumption, carbon dioxide production, and concurrent measurement of food intake. All mice were acclimatized to the chambers for 24 hours prior to the experiment and maintained under the regular 12:12 light:dark cycle with free access to water and food. All experiments were started in the morning and data were collected for 24 hours. Each chamber was passed with 0.61 of air/min and was sampled for 2 min at 32-minute intervals. Exhaust O2 and CO2 content from each chamber was compared with ambient O2 and CO2 content. Food consumption was measured by electronic scales.
at the end of the treatment period (6 weeks of treatment) subgroups of each treatment diet group (5 animals/group, 35 animals total) were used to measure whole body glucose and palmitate uptake via PET/CT Imaging. To visualize these compounds using microPET imaging, the glucose or palmitate was labeled with fluorine-18 (108 mins half-life) or carbon-11 (20 mins half-life), respectively. Each mouse was fasted for 4 hours, then anesthetized using 1-3% isoflurane delivered by nose cone or in a mouse-sized induction chamber purpose-built for small animal imaging protocols. While under anesthesia the mice were injected iv with <2 mCi of each tracer, then be left for a period of time (minutes to up ˜1 hour) to allow the uptake of the tracer. During the scan, mice were kept warm using a thermostatically controlled heated bed and were treated with ophthalmic ointment prior to scanning Following the live scan the mice were returned to their cage and revived. Mice were monitored constantly during this time. Following live data acquisition the mice were sacrificed by isoflurane overdose and organs harvested for further experiments.

[1] = tested on: adipocytes (3T3-L1) and myotubes (C2C12); assay: Fatty acid oxidation and dose-response screening, cell type not stated; format: cell-based, mouse; conditions: leucine 0.5 mM, HMB 5 μM, resveratrol 200 nM, myo-inositol 100 nM; cell type not stated

stimulation of Sirt1 activity (Sirt1): no effect
SMILES: Oc1ccc(/C=C/c2cc(O)cc(O)c2)cc1 [Resveratrol, 3,5,4′-Trihydroxy-trans-stilbene]
Weight (diet-induced obese mice; High Resveratrol 225 mg/kg diet, or Low Resv 12.5 mg/kg + High HMB 10 g CaHMB/kg diet): 38.7 ± 1.2^a g
Weight (diet-induced obese mice; low doses: resveratrol 12.5 mg/kg diet, CaHMB 2 g/kg diet, leucine 2.42% of diet): 40.8 ± 2.5^a g
Fat oxidation (PET palmitate uptake; Muscle SUV) (diet-induced obese mice; high doses as E2): 2.29 ± 0.11^b SUV
HOMAIR (diet-induced obese mice; high doses as E2): 0.59 ± 0.26^b
Heat Production (diet-induced obese mice; high doses as E2): 0.552 ± 0.015^b
Muscle Glucose Uptake (^18F-deoxyglucose SUV) (diet-induced obese mice; high doses as E2): 3.87 ± 0.32^a SUV
Visceral Adipose Volume (diet-induced obese mice; high doses as E2): 6031 ± 323^a mm^3
Weight gain (diet-induced obese mice; high doses as E2): 22.3 ± 2.4^a g
Fat oxidation (PET palmitate uptake; Muscle SUV) (diet-induced obese mice; low doses as E1): 1.51 ± 0.44^a SUV
HOMAIR (diet-induced obese mice; low doses as E1): 2.41 ± 0.66^a
Heat Production (diet-induced obese mice; low doses as E1): 0.517 ± 0.014^a
Muscle Glucose Uptake (^18F-deoxyglucose SUV) (diet-induced obese mice; low doses as E1): 3.63 ± 1.29^a SUV
Visceral Adipose Volume (diet-induced obese mice; low doses as E1): 6551 ± 575^a mm^3
Weight gain (diet-induced obese mice; low doses as E1): 20.9 ± 1.5^a g
Glucose (diet-induced obese mice; high doses as E2): 5.14 ± 0.75^a mM
Insulin (diet-induced obese mice; high doses as E2): 10.1 ± 2.7^a μU/mL
Glucose (diet-induced obese mice; low doses as E1): 5.14 ± 0.85^a mM
Insulin (diet-induced obese mice; low doses as E1): 10.4 ± 1.6^a μU/mL
increase in fatty acid oxidation [1]: no effect
